Values of other authors, collected in patent US8197801B2, “Use of compounds for the preservation of the human or animal body and compositions comprising same” (Arkema France, priority 2006, dated 2012).

Details: general statement

Structure (SMILES) | Toxicity relative to methanol and formaldehyde
COCOC [methylal, CH3—(OCH2)—OCH3] | much less toxic than methanol and formaldehyde
CCCCOCOCCCC [butylal, C4H9—(OCH2)—OC4H9] | much less toxic than methanol and formaldehyde
CCOCOCC [ethylal, C2H5—(OCH2)—OC2H5] | much less toxic than methanol and formaldehyde
